# From ChEMBL document CHEMBL5365419, “Identification of a Protein Arginine Methyltransferase 7 (PRMT7)/Protein Arginine Methyltransferase 9 (PRMT9) Inhibitor” (J Med Chem, 2023)
# Active and inactive are the calls of the source. The calls are words filed in the database; no cut-off is given here.
# How the values were obtained:
# [1] = biological target: T1, Histone-lysine N-methyltransferase EHMT2 (Homo sapiens) (UniProt Q96KQ7); experiment: Inhibition of N-terminal/C-terminal His-tagged human recombinant G9a (913 to 1193 residues) at higher concentration using histone H3 (1 to 21 residues) as substrate and 3H-SAM as cosubstrate incubated for 60 mins by scintillation counter analysis
# T1 sequence (whole entry): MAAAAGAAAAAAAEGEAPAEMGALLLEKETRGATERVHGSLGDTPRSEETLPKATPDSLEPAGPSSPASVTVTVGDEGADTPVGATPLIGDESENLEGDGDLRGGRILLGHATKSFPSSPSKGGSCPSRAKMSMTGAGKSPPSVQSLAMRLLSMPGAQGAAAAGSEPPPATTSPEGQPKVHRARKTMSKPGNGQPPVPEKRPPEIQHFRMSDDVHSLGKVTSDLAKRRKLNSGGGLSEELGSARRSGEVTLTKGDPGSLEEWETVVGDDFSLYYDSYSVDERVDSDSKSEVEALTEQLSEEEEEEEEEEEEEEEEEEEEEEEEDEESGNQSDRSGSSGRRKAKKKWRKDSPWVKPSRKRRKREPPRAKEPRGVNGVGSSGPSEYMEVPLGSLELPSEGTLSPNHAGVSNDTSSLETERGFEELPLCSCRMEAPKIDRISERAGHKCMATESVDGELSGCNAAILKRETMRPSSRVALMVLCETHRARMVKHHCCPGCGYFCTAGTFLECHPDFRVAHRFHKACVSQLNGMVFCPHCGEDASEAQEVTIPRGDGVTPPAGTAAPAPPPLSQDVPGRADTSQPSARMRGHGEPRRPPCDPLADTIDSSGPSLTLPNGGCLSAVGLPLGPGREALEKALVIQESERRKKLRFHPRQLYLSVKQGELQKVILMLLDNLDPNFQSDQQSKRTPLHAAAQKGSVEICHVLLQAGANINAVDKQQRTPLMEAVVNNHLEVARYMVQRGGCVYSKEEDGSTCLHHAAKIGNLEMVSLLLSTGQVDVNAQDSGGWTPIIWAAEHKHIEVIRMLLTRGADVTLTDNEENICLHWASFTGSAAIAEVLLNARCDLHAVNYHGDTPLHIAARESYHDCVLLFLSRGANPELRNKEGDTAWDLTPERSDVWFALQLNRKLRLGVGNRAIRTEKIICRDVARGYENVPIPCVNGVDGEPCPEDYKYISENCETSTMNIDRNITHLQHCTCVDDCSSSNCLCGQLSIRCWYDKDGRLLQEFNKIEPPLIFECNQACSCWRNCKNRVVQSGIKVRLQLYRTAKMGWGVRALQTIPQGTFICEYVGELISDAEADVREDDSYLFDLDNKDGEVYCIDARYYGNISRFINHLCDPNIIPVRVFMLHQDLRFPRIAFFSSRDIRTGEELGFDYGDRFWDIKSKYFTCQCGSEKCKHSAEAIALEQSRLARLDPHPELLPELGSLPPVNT
# [2] = biological target: T2, Histone-lysine N-methyltransferase SMYD3 (Homo sapiens) (UniProt Q9H7B4); experiment: Inhibition of C-terminal His/GST-tagged human recombinant SMYD3 (2 to 428 residues) at higher concentration using 3H-SAM as substrate incubated for 60 mins by scintillation counter analysis
# T2 sequence (whole entry): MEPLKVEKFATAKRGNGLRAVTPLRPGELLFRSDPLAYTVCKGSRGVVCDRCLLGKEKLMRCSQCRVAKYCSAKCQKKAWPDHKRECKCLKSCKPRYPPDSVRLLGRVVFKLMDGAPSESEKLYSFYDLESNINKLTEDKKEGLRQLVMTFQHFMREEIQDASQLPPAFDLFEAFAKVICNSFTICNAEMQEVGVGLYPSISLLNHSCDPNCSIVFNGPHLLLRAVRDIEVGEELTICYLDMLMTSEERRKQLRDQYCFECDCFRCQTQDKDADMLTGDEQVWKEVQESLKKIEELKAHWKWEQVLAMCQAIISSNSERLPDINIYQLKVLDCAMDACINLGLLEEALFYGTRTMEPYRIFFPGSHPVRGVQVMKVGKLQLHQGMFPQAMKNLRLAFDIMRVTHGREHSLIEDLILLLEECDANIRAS
smiles,measurement,setting,value
COC(=O)c1cc(O)c2cc(NC(=O)NCCCNC(=N)NC[C@H]3O[C@@H](n4cnc5c(N)ncnc54)[C@H](O)[C@@H]3O)cc(C(F)(F)F)c2c1,inhibition,[1],inactive
same,inhibition,[2],inactive
